Laboratory results published in patent publication US20230391748A1, “BICYCLIC INHIBITORS OF IRAK” (priority 2022, published 2023).

Columns and labels:
IL23p19 in THP-1 Cells = assay: LPS Induced IL23p19 in THP-1 Cells (with IFNγ Primed) Assay; assay type: cell-based; settings: Homo sapiens, THP-1, 18 h, read-out: IL23 (THP, LPS) (IC50, μM)
In short: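 THP-1 cells (50K/well) primed with IFNγ (50 ng/mL) about 18 h, then given compound and stimulated with LPS for 18 h at 37 °C. Secreted IL-23p19 measured by sandwich ELISA with chemiluminescent read-out, giving EC50. Cell Titer Glo used on the remaining cells for toxicity.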

IRAK4 = IRAK4 (Homo sapiens (Human), UniProt Q9NWZ3); assay: IRAK4 ADP-Glo Assay; assay type: biochemical; settings: MBP substrate
In short: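 Human IRAK4 kinase reaction with MBP substrate plus ATP in Tris-HCl/MgCl2/BSA/DTT buffer, pH 7.4, run 60 min at room temperature or 30 min at 30 °C. ADP formed was measured by ADP-Glo luminescence after ATP depletion (40 min) and detection reagent (30 min).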

[1] = test system: TNF-α in Human Primary Monocyte-Derived Dendritic Cells; assay: Gardiquimod-Induced TNF-α in Human Primary Monocyte-Derived Dendritic Cells; assay type: cell-based; settings: Dendritic cell, IFNγ-primed monocyte-derived dendritic cells, 4 μg/ml Gardiquimod, 6 hours, TNF-α ELISA, read-out: TNFα (DC, GARD) (IC50)
In short: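 Monocytes differentiated 7 days with GM-CSF and IL-4, then primed 24 h with 50 ng/ml IFN-γ. Compound added 1 h before 6 h stimulation with 4 μg/ml Gardiquimod, 0.5% DMSO final. Supernatant TNF-α measured by chemiluminescent ELISA; EC50 from curve fitting.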

TNF-α in human PBMCs = assay: R848-induced TNF-α in human PBMCs Assay; assay type: cell-based; settings: Homo sapiens, PBMC, 4 h, read-out: TNFα (PBMC, R848) (IC50, μM)
In short: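 Human PBMCs at 200K/well were pretreated with compound, then R848-stimulated for 4 h at 37 °C, 5% CO2. Supernatant TNF-α quantified by chemiluminescent ELISA; EC50 from curve fitting.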

IRAK4, sequence (Q9NWZ3 whole entry): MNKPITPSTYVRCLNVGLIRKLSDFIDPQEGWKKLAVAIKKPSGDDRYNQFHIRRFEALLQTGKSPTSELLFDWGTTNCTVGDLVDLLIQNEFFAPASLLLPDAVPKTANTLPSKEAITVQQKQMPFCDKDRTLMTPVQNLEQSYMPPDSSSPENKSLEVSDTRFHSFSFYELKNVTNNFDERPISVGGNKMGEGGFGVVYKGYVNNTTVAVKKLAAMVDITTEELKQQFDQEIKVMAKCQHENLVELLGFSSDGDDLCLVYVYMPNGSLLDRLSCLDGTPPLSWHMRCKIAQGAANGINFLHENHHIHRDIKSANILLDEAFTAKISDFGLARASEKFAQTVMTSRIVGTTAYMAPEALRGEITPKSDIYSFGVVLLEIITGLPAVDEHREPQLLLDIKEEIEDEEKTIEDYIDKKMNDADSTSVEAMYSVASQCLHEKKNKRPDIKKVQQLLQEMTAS

SMILES	IC50 (IL23p19 in THP-1 Cells)	IC50 (IRAK4)	IC50 [1]	IC50 (TNF-α in human PBMCs)
CC(C)Oc1cc2c(OC[C@@H]3CCC(=O)N3)ncc(C#CC3(O)CCN(C(=O)OC(C)(C)C)CC3)c2cc1C(N)=O [Compound I-12, tert-butyl (S)-4-((6-carbamoyl-7-isopropoxy-1-((5-oxopyrrolidin-2-yl)methoxy)isoquinolin-4-yl)ethynyl)-4-hydroxypiperidine-1-carboxylate]	1.25 µM	41.2 nM	6090 nM	0.448 µM
CC(C)Oc1cc2c(O[C@@H]3CCCNC3)ncc(-c3cnn(C4CC4)c3)c2cc1C(N)=O [Compound I-108, (R)-4-(1-cyclopropyl-1H-pyrazol-4-yl)-7-isopropoxy-1-(piperidin-3-yloxy)isoquinoline-6-carboxamide]	10 µM	142 nM	1370 nM	5.5 µM
CC(C)Oc1cc2c(O[C@@H]3CCCN(C(=O)CC#N)C3)ncc(-c3cnn(C4CCC4)c3)c2cc1C(N)=O [Compound I-115, (R)-1-((1-(2-cyanoacetyl)piperidin-3-yl)oxy)-4-(1-cyclobutyl-1H-pyrazol-4-yl)-7-isopropoxyisoquinoline-6-carboxamide]	0.911 µM	13.2 nM	450 nM	0.443 µM
CC(C)Oc1cc2c(OC[C@@H]3CC(F)(F)C(=O)N3)ncc(-c3cnn([C@H]4C[C@@H](N(C)C)C4)c3)c2cc1C(N)=O [Compound I-73, 1-(((S)-4,4-difluoro-5-oxopyrrolidin-2-yl)methoxy)-4-(1-(cis-3-(dimethylamino)cyclobutyl)-1H-pyrazol-4-yl)-7-isopropoxyisoquinoline-6-carboxamide]	1.04 µM	3 nM	259 nM	0.203 µM
CC(C)Oc1cc2c(OC[C@@H]3CCC(=O)N3)ncc(C#CCC3CCOCC3)c2cc1C(N)=O [Compound I-11, (S)-7-isopropoxy-1-((5-oxopyrrolidin-2-yl)methoxy)-4-(3-(tetrahydro-2H-pyran-4-yl)prop-1-yn-1-yl)isoquinoline-6-carboxamide]	0.474 µM	10.5 nM	199 nM	0.32 µM
CC(C)Oc1cc2c(OC[C@@H]3CC(F)(F)C(=O)N3)ncc(-c3cnn(CCC4CCOCC4)c3)c2cc1C(N)=O [Compound I-72, (S)-1-((4,4-difluoro-5-oxopyrrolidin-2-yl)methoxy)-7-isopropoxy-4-(1-(2-(tetrahydro-2H-pyran-4-yl)ethyl)-1H-pyrazol-4-yl)isoquinoline-6-carboxamide]	0.872 µM	7 nM	273 nM	0.183 µM
COC1(OC)CC(C#Cc2cnc(O[C@@H]3CCCN(C(=O)CC#N)C3)c3cc(OC(C)C)c(C(N)=O)cc23)C1 [Compound I-105, (R)-1-((1-(2-cyanoacetyl)piperidin-3-yl)oxy)-4-((3,3-dimethoxycyclobutyl)ethynyl)-7-isopropoxyisoquinoline-6-carboxamide]	0.603 µM	10 nM	286 nM	0.275 µM
CC(C)Oc1cc2c(O[C@@H]3CCCNC3)ncc(-c3cnn(CCC4CCOCC4)c3)c2cc1C(N)=O [Compound I-113, (R)-7-isopropoxy-1-(piperidin-3-yloxy)-4-(1-(2-(tetrahydro-2H-pyran-4-yl)ethyl)-1H-pyrazol-4-yl)isoquinoline-6-carboxamide]	8.82 µM	364 nM	853 nM	0.677 µM
CC(C)Oc1cc2c(OC[C@@H]3CCC(=O)N3)ncc(C#CC3CCN(C)CC3)c2cc1C(N)=O [Compound I-18, (S)-7-isopropoxy-4-((1-methylpiperidin-4-yl)ethynyl)-1-((5-oxopyrrolidin-2-yl)methoxy)isoquinoline-6-carboxamide]	0.606 µM	2.3 nM	203 nM	0.306 µM
